# Data as given in patent US20230330034A1, “COVALENTLY CROSS-LINKED GLYCOSYLATED MUCIN NANOPARTICLES AS SYSTEMS FOR THE DELIVERY AND RELEASE OF ACTIVE INGREDIENTS AND BIOMOLECULES” (priority 2020, published 2023).
# What was measured:
# [1] = system: H358 lung cancer cell line; experiment: Antiproliferative activity, % of cell viability; format: cell-based; details: Homo sapiens, NCI-H358, read-out: 1050
# [2] = PAMPA, 5 h, 200 µM
compound,measurement,setting,value
COc1cccc2c1C(=O)c1c(O)c3c(c(O)c1C2=O)C[C@@](O)(C(=O)CO)C[C@@H]3O[C@H]1C[C@H](N)[C@H](O)[C@H](C)O1 [doxorubicin],IC50,[1],0.3 nM
CC(C)NCC(O)COc1cccc2ccccc12 (centres unmarked) [propranolol],Ca (t),[2],2.01 µM
same,Cd(t),[2],6.6 µM
same,Ceq,[2],3.85 µM
CC(=O)Nc1cccc(-n2c(=O)n(C3CC3)c(=O)c3c(Nc4ccc(I)cc4F)n(C)c(=O)c(C)c32)c1 [trametinib],IC50,[1],7 nM
